From patent US5169758A (Boehringer Mannheim GmbH, priority 1986, dated 1992)

Test system: NAD(P)H-dependent, soluble nitrate reductase of the assimilatory type (E.C. 1.6.6.2) from mould fungus
Conditions: nitrite acts as inhibitor above this concentration

Structure (SMILES): O=NO [nitrite]
- Inhibitor concentration (product inhibition): more than 10^-4 M
